Experiments:
[1] = system: corn ear worm (Heliothus zea); assay: Exemplary compound applied after insecticide, sweet corn; format: in vivo
From the text: An exemplary compound, methyl anthranilate, was applied to sweet corn after the crop had been treated with an insecticide (e.g., the pyrethrin insecticide WARRIOR™) to control corn ear worm (Heliothus zea). Prior to application of the exemplary compound, few if any larvae, which typically reside in the developing ear, were observed on the ground around the corn stalks.
After applying the exemplary compound, methyl anthranilate, at a concentration of approximately 4.5 oz.

[2] = system: ants; assay: Treatment of ground to form a boundary; conditions: in vivo
Experimental: An exemplary method includes applying an exemplary compound or composition to the ground to thereby discourage insect traffic or deposition of insect semiochemicals. For example, where an exemplary compound is applied to the ground, the ground is not readily further marked by an insect semiochemical. A trial was performed where an exemplary compound (methyl anthranilate) was applied to the ground to form a boundary.

[3] = system: Thaumatomyia glabra (Meigen) flies; conditions: in vivo; cited from earlier work
[4] = system: adult weevils; assay: Exemplary compound on sunflowers previously sprayed with esfenvalerate, weevils emerging; format: in vivo
From the text: (§1) An exemplary compound, methyl anthranilate, was combined with long chain fatty acids. An exemplary method applied the mixture to fifteen maturing sunflowers in the interior of two fields that were previously sprayed with an insecticide, esfenvalerate (e.g., the insecticide product ASANA™). The mixture that included the exemplary compound was applied by spraying the mixture across the head of each flower (e.g., where seeds exist). The number of striped sunflower head moth larvae and weevils, emerging from the seeds, was recorded.

[5] = system: banded sunflower moth (Cochylis hospes), sunflower seed head larvae; assay: Sunflower field application, seed head larvae; format: in vivo; conditions: BIRDSHIELD at 0.006%, approx. two weeks after ASANA; within a minute of application
From the text: An insecticide such as ASANA™ (active ingredient esfenvalerate) is suitable for use in controlling banded sunflower moth (Cochylis hospes). An exemplary composition that included an exemplary compound, methyl anthranilate (e.g., BIRDSHIELD™), was applied to sunflowers.
(§2) An insecticide, ASANA™, was applied to sunflowers. Approximately two weeks later, an exemplary compound, methyl anthranilate (e.g., BIRDSHIELD™ at 0.006%) was applied to the same sunflowers. […] This behavior caused the larvae to fall off of the flower portions of the sunflowers. In addition, the exemplary compound affected behavior of other insects on the treated sunflowers.

[6] = system: house flies (Drosophila melanogater); assay: Three-section Petri dish choice test; format: in vivo
From the text: Colonies of house flies (Drosophila melanogater) were selected for subsequent placement in covered Petri dishes wherein each Petri dish was divided into three sections. One of the sections, a center section, was used as a control. An exemplary compound, methyl anthranilate (e.g., BIRDSHIELD™ at 0.006%) was applied to a piece of filter paper and placed in a first section while an […] (e.g., deionized water), was applied to another piece of filter paper and placed in second section. Flies were then released into the center control section and lids were placed on the Petri dishes.
More specifically, 100 captive flies were used and the sections were approximately equal in size, e.g., 33% of total space per section. Flies were released into the neutral zone of each Petri dish and monitored after 15 minutes and one hour.

[7] = system: Ceranisus menes; conditions: in vivo; cited from earlier work
[8] = system: insects; assay: Glue coated cardboard traps in a field; format: in vivo
Experimental: Trials were performed using an exemplary compound as part of a trapping device (e.g., a glue coated cardboard surface). Five traps were each treated with a 1 ml solution of 0.0156%, 0.03125%, 0.0625%, 0.125% and 0.25% methyl anthranilate, respectively. The treated traps were then placed at relatively random locations in a field. An untreated trap was placed adjacent to each treated trap and the number of insects adhered to each trap recorded as a function of time.

[9] = system: mites and spiders; assay: Sunflower field application, other insects on treated sunflowers; format: in vivo; conditions: BIRDSHIELD at 0.006%, approx. two weeks after ASANA
From the text: as §2

[10] = system: striped sunflower head moth larvae; assay: Exemplary compound on sunflowers previously sprayed with esfenvalerate, moth larvae emerging; format: in vivo
From the text: as §1

[11] = system: T. coloratus; conditions: in vivo; cited from earlier work
[12] = system: striped sunflower head moth larvae; assay: Exemplary compound applied after exemplary composition, sunflowers; conditions: in vivo
From the text: An exemplary compound, methyl anthranilate, was combined with long chain fatty acids. The exemplary compound, as mixed with the fatty acids, was applied to three fields of maturing sunflowers. Each of the fields had previously been treated with an exemplary composition that included an exemplary compound, methyl anthranilate (approx. 4.5 oz per acre mixed with long chain fatty acids) and an insecticide, in this example, esfenvalerate (approx. 8 oz per acre using the insecticide product ASANA™). Ten flowers were randomly selected from the interior of each field and one-half of the seed heads were sprayed with DEET and one-half sprayed with the exemplary compound at a concentration of approximately 0.00312% methyl anthranilate, which was in a mixture that included long chain fatty acids. Spraying sprayed across the head of each flower. The number of striped sunflower head moth larvae, emerging from the seeds, was recorded.

[13] = system: Thrips hawaiiensis; conditions: in vivo; cited from earlier work
[14] = system: birds; assay: Container placed in aircraft hanger; format: in vivo; conditions: 2.5 gallon HDPE container at least partially filled
[15] = system: Aenictus; conditions: in vivo; cited from earlier work

COC(=O)c1ccccc1N [methyl anthranilate]
insects on the ground around the corn stalks ([1]; approximately 4.5 oz. (127 g) per acre by aircraft, after WARRIOR treatment): a significant number of insects were observed on the ground
worms in the corn ears at harvest ([1]; insecticide (WARRIOR) and methyl anthranilate): did not contain any significant number of worms
crossing of treated ground boundary [2]: ants did not cross this boundary
attraction of Thaumatomyia glabra flies [3]: attractive
Number of Adult Weevils, Mean ([4]; Field No 2): 1.14
Number of Adult Weevils, Total ([4]; Field No 2): 8
Number of Adult Weevils, Mean ([4]; Field No. 1): 0.43
Number of Adult Weevils, Total ([4]; Field No. 1): 3
appearance of sunflower seed head larvae [5]: began to appear on the surface of the sunflowers
fly response to treated section ([6]; 0.006% on filter paper, within one hour): avoided the section treated with the exemplary compound
fly response to treated areas ([6]; approximately 0.00025%): relatively neutral
fly response to treated areas ([6]; approximately 0.0025%): somewhat neutral
fly response to treated areas ([6]; approximately 0.025%): avoided the treated areas
fly response to treated areas ([6]; approximately 0.25%, 100 flies, monitored after 15 minutes and one hour): avoided the treated areas
attraction of Ceranisus menes [7]: are attracted
number of insects adhered to trap ([8]; 0.0156 percent, 1 min): 3
number of insects adhered to trap ([8]; 0.0156 percent, 5 min): 22
number of insects adhered to trap ([8]; 0.0156 percent, 10 min): 75
number of insects adhered to trap ([8]; 0.0156 percent, 20 min): >75
number of insects adhered to trap ([8]; 0.0313 percent, 1 min): 5
number of insects adhered to trap ([8]; 0.0313 percent, 5 min): 15
number of insects adhered to trap ([8]; 0.0313 percent, 10 min): 68
number of insects adhered to trap ([8]; 0.0313 percent, 20 min): >68
number of insects adhered to trap ([8]; 0.0625 percent, 1 min): 7
number of insects adhered to trap ([8]; 0.0625 percent, 5 min): 35
number of insects adhered to trap ([8]; 0.0625 percent, 10 min): 128
number of insects adhered to trap ([8]; 0.0625 percent, 20 min): >128
number of insects adhered to trap ([8]; 0.1250 percent, 1 min): 15
number of insects adhered to trap ([8]; 0.1250 percent, 5 min): 62
number of insects adhered to trap ([8]; 0.1250 percent, 10 min): 256
number of insects adhered to trap ([8]; 0.1250 percent, 20 min): >256
number of insects adhered to trap ([8]; 0.2500 percent, 1 min): 43
number of insects adhered to trap ([8]; 0.2500 percent, 5 min): 84
number of insects adhered to trap ([8]; 0.2500 percent, 10 min): 346
number of insects adhered to trap ([8]; 0.2500 percent, 20 min): >346
behavior of mites and spiders on treated sunflowers [9]: observed to appear from spaces between maturing seeds and to subsequently fall off the flower portion of the sunflowers
Number of Moth Larvae, Mean ([10]; Field No 2): 0.86
Number of Moth Larvae, Total ([10]; Field No 2): 6
Number of Moth Larvae, Mean ([10]; Field No. 1): 0.57
Number of Moth Larvae, Total ([10]; Field No. 1): 4
drawing larvae and weevils out of the seeds ([10]; after the crop had been treated with the insecticide alone): successful in drawing striped sunflower head math larvae out of the seeds
attraction of T. coloratus [11]: are attracted
effectiveness when applied after an exemplary composition [12]: high level of effectiveness
attraction of Thrips hawaiiensis [13]: are attracted
bird population in hanger [14]: bird population dwindled
surface guano on aircraft [14]: significant drop in surface guano
semiochemical function for Aenictus [15]: trail semiochemicals
